Data taken from US8901118B2, “Compounds and methods for kinase modulation, and indications therefor” (Plexxikon Inc., priority 2010, dated 2014).

The compounds below were run against T1, BCR-NTRK3 BaF3 cells (Homo sapiens, UniProt Q16288) (assay: BaF3 BCR-NTRK3 cell proliferation assay (ATPlite)). Conditions: read-out: Inhibition of Cell Proliferation IC50, BCR/BaF3 TrkC.
T1 construct: fused on or other part: P11274 (Breakpoint cluster region protein)
Format: cell-based
In short: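 IL-3-free growth, 3-day compound exposure (8-point 1:3 titration, top 10 μM, DMSO control), 37 °C 5% CO2. BaF3 10,000 or MV-4-11 25,000 cells/well, plated overnight beforehand. Read-out ATPlite luminescence vs concentration → IC50.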

T1 sequence (Q16288 whole entry, the tested form may be a part): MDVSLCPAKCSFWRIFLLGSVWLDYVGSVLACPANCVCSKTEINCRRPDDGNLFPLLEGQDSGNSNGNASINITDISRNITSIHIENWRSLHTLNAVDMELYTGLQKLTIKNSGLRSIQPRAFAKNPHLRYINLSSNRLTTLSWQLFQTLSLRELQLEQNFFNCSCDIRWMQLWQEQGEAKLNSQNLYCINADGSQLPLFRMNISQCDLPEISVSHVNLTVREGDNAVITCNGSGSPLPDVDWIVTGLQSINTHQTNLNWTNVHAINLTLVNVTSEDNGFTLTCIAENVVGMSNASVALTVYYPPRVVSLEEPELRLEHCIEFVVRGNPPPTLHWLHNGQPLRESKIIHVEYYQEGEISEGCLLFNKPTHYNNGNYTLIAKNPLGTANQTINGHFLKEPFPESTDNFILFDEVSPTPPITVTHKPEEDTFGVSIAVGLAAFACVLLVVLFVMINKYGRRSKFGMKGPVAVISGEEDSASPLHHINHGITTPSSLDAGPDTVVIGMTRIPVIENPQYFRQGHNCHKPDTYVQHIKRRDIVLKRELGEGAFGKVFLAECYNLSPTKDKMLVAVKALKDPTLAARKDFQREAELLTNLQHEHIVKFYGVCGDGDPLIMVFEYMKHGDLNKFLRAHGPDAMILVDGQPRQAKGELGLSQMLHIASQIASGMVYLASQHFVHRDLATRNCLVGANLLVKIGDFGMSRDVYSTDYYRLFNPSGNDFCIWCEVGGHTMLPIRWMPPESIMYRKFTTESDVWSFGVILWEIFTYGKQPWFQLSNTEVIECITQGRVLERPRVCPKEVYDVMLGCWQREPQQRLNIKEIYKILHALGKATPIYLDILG

IC50 [nM]	SMILES
< 1000	Cc1cnc2[nH]cc(Cc3cnc(Nc4cc(C5CC5)n[nH]4)nc3)c2c1 [Compound P-3032, (5-Cyclopropyl-2H-pyrazol-3-yl)-[5-(5-methyl-1H-pyrrolo[2,3-b]pyridin-3-ylmethyl)-pyrimidin-2-yl]-amine]
< 100	CSc1ccc(Nc2ncc(Cc3c[nH]c4ncc(C)cc34)cn2)cc1 [Compound P-3033, [5-(5-Methyl-1H-pyrrolo[2,3-b]pyridin-3-ylmethyl)-pyrimidin-2-yl]-(4-methylsulfanyl-phenyl)-amine]
< 100	Cc1cnc2[nH]cc(Cc3cnc(Nc4ccc(S(C)(=O)=O)cc4)nc3)c2c1 [Compound P-3034, (4-Methanesulfonyl-phenyl)-[5-(5-methyl-1H-pyrrolo[2,3-b]pyridin-3-ylmethyl)-pyrimidin-2-yl]-amine]
> 1000	Cc1cnc2[nH]cc(Cc3cnc(Nc4cc(C(F)(F)F)n[nH]4)nc3)c2c1 [Compound P-3037, [5-(5-Methyl-1H-pyrrolo[2,3-b]pyridin-3-ylmethyl)-pyrimidin-2-yl]-(5-trifluoromethyl-2H-pyrazol-3-yl)-amine]
< 100	Cc1cnc2[nH]cc(Cc3ccc(Nc4ccc(C)nc4)nc3F)c2c1 [Compound P-3041, [6-Fluoro-5-(5-methyl-1H-pyrrolo[2,3-b]pyridin-3-ylmethyl)-pyridin-2-yl]-(6-methyl-pyridin-3-yl)-amine]
< 100	Cc1ccc(Nc2ccc(Cc3c[nH]c4ncc(Cl)cc34)c(F)n2)cn1 [Compound P-3042, [5-(5-Chloro-1H-pyrrolo[2,3-b]pyridin-3-ylmethyl)-6-fluoro-pyridin-2-yl]-(6-methyl-pyridin-3-yl)-amine]
< 10	O=C(c1ccc(Nc2ccc(C3CC3)nc2)nc1F)c1c[nH]c2ncccc12 [Compound P-3052, [6-(6-Cyclopropyl-pyridin-3-ylamino)-2-fluoro-pyridin-3-yl]-(1H-pyrrolo[2,3-b]pyridin-3-yl)-methanone]
< 10	Fc1nc(Nc2ccc(C3CC3)nc2)ccc1Cc1c[nH]c2ncccc12 [Compound P-3053, (6-Cyclopropyl-pyridin-3-yl)-[6-fluoro-5-(1H-pyrrolo[2,3-b]pyridin-3-ylmethyl)-pyridin-2-yl]-amine]
< 100	CCOc1ncnc2[nH]cc(Cc3ccc(Nc4ccc(Br)nc4)nc3F)c12 [Compound P-4020, (6-Bromo-pyridin-3-yl)-[5-(4-ethoxy-7H-pyrrolo[2,3-d]pyrimidin-5-ylmethyl)-6-fluoro-pyridin-2-yl]-amine]
< 1000	CCOc1ncnc2[nH]cc(Cc3ccc(Nc4cccnc4)nc3F)c12 [Compound P-4021, [5-(4-Ethoxy-7H-pyrrolo[2,3-d]pyrimidin-5-ylmethyl)-6-fluoro-pyridin-2-yl]-pyridin-3-yl-amine]
< 10	CCOc1ccc(Nc2ccc(Cc3c[nH]c4ncnc(C5CC5)c34)c(F)n2)cn1 [Compound P-4026, [5-(4-Cyclopropyl-7H-pyrrolo[2,3-d]pyrimidin-5-ylmethyl)-6-fluoro-pyridin-2-yl]-(6-ethoxy-pyridin-3-yl)-amine]
< 10	CCOc1ccc(Nc2ccc(C(=O)c3c[nH]c4ncnc(C5CC5)c34)c(F)n2)cn1 [Compound P-4027, (4-Cyclopropyl-7H-pyrrolo[2,3-d]pyrimidin-5-yl)-[6-(6-ethoxy-pyridin-3-ylamino)-2-fluoro-pyridin-3-yl]-methanone]
< 10	CCc1ccc(Nc2ccc(Cc3c[nH]c4ncnc(C5CC5)c34)c(F)n2)cn1 [Compound P-4028, [5-(4-Cyclopropyl-7H-pyrrolo[2,3-d]pyrimidin-5-ylmethyl)-6-fluoro-pyridin-2-yl]-(6-ethyl-pyridin-3-yl)-amine]
< 10	CCc1ccc(Nc2ccc(C(=O)c3c[nH]c4ncnc(C5CC5)c34)c(F)n2)cn1 [Compound P-4029, (4-Cyclopropyl-7H-pyrrolo[2,3-d]pyrimidin-5-yl)-[6-(6-ethyl-pyridin-3-ylamino)-2-fluoro-pyridin-3-yl]-methanone]
